Several values for one entry are separate records, joined by “and”; a condition that tells them apart may be missing. Equal values may be shown once.
Assays:
[1] = target: T1, recombinant soluble E-selectin (Homo sapiens, UniProt P16581); test: Recombinant soluble E-selectin/HL-60 cell adhesion assay; format: cell-based; conditions: for Ratio (50 percent binding value for the standard Compound Z divided by the 50 percent binding value for the assayed sample) / IC50 value ratio of SLe^x to that of the compound: E-Selectin Cell Adhesion Assay, HL-60 cells; for Ratio (50 percent binding value for the standard Compound Z divided by the 50 percent binding value for the assayed sample): relative to Compound Z; for IC50 value ratio of SLe^x to that of the compound: relative to SLe^x (Table 1 value divided by 0.76); for inhibition of HL-60 cell adhesion to recombinant soluble E-selectin-coated plates, activity order: FIG. 1, range of inhibitor concentrations (mM)
T1 construct: The 3'-amplimer inserted the termination codon TGA after amino acid number 527 of the mature E-selectin; made in house
T1 sequence (P16581 22-548 limits assumed): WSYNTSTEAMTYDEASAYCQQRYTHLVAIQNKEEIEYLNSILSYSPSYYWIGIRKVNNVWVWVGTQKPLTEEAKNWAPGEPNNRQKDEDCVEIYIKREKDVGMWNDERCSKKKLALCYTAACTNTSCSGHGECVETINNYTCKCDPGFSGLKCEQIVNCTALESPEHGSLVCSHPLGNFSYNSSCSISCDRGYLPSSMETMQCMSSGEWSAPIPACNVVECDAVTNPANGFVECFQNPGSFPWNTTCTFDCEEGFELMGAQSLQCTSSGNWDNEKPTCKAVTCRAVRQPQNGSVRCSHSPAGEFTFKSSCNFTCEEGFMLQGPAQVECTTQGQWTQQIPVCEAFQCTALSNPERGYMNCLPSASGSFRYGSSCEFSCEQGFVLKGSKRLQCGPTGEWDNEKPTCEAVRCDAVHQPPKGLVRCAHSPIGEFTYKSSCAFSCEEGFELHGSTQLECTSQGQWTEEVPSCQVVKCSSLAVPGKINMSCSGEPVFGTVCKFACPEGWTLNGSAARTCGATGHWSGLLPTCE
Experimental: A modified recombinant soluble E-selectin/HL-60 cell adhesion assay was developed to provide a simple and highly reproducible method with which to compare the E-selectin blocking potential of a bivalent SLe^x saccharide compound. In this assay, recombinant soluble E-selectin (rELAM) is bound to the plastic surface of a 96 well ELISA plate. Dilutions of bivalent SLe^x saccharide compounds to be assayed are added to the wells followed by HL-60 cells which bear the ligand for E-selectin. The cells are allowed to adhere to the E-selectin coated assay plate and the nonadherent cells are removed by washing the plate with an automated plate washer. Bound cells are quantitated by measuring the cellular enzyme myeloperoxidase. The molar concentration of assayed bivalent SLe^x saccharide required to achieve 50 percent inhibition of control adhesion such as that inhibited by free SLe^x or an analog is used to compare the contemplated analogs for potency.
rELAM (recombinant modified ELAM-1) affinity purified, prepared as follows below. Each batch of rELAM was tested functionally to determine the appropriate concentration for use in the assay. A batch was titrated over a range of 1-5 μg/mL using inhibition by Compound Z (described hereinafter) as the standard. Small aliquots were then prepared, quick frozen in a dry-ice acetone bath and stored at -70° C. Each aliquot was opened only one time and then discarded or saved for use in other types of assays.
The soluble form of E-selectin (rELAM or sol-E-selectin) used here was engineered by deleting the transmembrane domain from the cDNA. This recombinant cDNA was cloned into a mammalian expression vector pCDNA1 [a derivative of pCDM8; Seed, Nature, 329:840 (1987)] that contains the chimeric cytomegalovirus/human immunodeficiency virus promoter. When introduced into the adenovirus-transformed human kidney cell line 293, expression of the CMV promoter is efficiently activated by the E1 gene products by a mechanism that has not been fully delineated. The pCDNA1-sol-E-selectin construction was introduced, via calcium phosphate-mediated gene transfer, into 293 cells and a stable cell line expressing high levels of sol-E-selectin was generated. The sol-E-selectinproduced by these cells was purified by immunoaffinity chromatograph on an anti-E-selectin monoclonal antibody Protein-A Sepharose column.
A 1.67 Kbp DNA fragment encoding a truncated structural gene for E-selectin was isolated by polymerase chain reaction (PCR) amplification of cDNA derived from messenger RNA that was isolated from IL-1-activated human endothelial cells. The 5'-amplimer inserted a unique ClaI restriction site 28 nucleotides upstream from the initiation codon of the E-selectin structural gene. The 3'-amplimer inserted the termination codon TGA after amino acid number 527 of the mature E-selectin, followed by a unique XhoI restriction site. The carboxy-terminus of sol-E-selectin is located at the carboxy terminus of the sixth consensus repeat element, thereby deleting the transmembrane domain. The 1.67 Kbp PCR fragment was codigested with ClaI and XhoI restriction endonucleases and sub-cloned into the ClaI and XhoI restriction sites of the cloning vector pBluescript II, providing vector pBS11-sol-E-selectin. Expressed soluble-E-selectin is 527 amino acid residues in length and contains 11 potential N-glycosylation sites.
1. Assays were carried out in 96-well Immunolan 2 plates (Dynatech Laboratories, Inc., Chantilly, Va. catalog #011-0103655). The rELAM (sol-E-selectin) was diluted to the appropriate concentration for the current batch. For these assays, rELAM was used at 2.5 or 3.0 μg/mL in DPBS; with well coating being carried out at room temperature. Using a multichannel pipette, 50μl per well were added to the following wells of one ELISA plate: E1-E6, F1-F6, and G1-G6. DPBS (50μl ) was added to wells H1, H2, and H3 for use as controls. This plate is referred to as the pretest plate. […]

E-selectin = conditions: monomeric; Nelson et al.; cited from earlier work
lung injury in rats = conditions: Mulligan et al., cited from earlier work
P-selectin = conditions: monomeric; Nelson et al.; cited from earlier work
[2] = infusion, cobra venom-infused rats

Row | Compound | Ratio (50 percent binding value for the standard Compound Z divided by the 50 percent binding value for the assayed sample) [1] | IC50 value ratio of SLe^x to that of the compound [1] | inhibition of HL-60 cell adhesion to recombinant soluble E-selectin-coated plates, activity order [1] | binding to E-selectin (E-selectin) | accumulation of neutrophils (lung injury in rats; [2]) | lung injury (lung injury in rats; [2]) | IC50 (lung injury in rats; protection against lung injury in rats, read-out: in vivo IC50 value) [nM] | binding to P-selectin (P-selectin)
1 | COC(=O)CCCCCO[C@@H]1O[C@H](CO[C@@H]2O[C@H](CO)[C@@H](O[C@@H]3O[C@H](CO)[C@H](O)[C@H](O[C@]4(C(=O)O)C[C@H](O)[C@@H](NC(C)=O)[C@H]([C@H](O)[C@H](O)CO)O4)[C@H]3O)[C@H](O[C@@H]3O[C@@H](C)[C@@H](O)[C@@H](O)[C@@H]3O)[C@H]2NC(C)=O)[C@H](O)[C@H](O)[C@H]1O[C@@H]1O[C@H](CO)[C@@H](O[C@@H]2O[C@H](CO)[C@H](O)[C@H](O[C@]3(C(=O)O)C[C@H](O)[C@@H](NC(C)=O)[C@H]([C@H](O)[C@H](O)CO)O3)[C@H]2O)[C@H](O[C@@H]2O[C@@H](C)[C@@H](O)[C@@H](O)[C@@H]2O)[C@H]1NC(C)=O [Compound 20, 5-Methoxycarbonylpentyl 2,6-bis-O-[(5-acetamido-3,5-dideoxy-α-D-glycero-D-galacto-2-nonulo-pyranosylonic acid)-yl-(2→3)-β-D-galactopyranosyl-(1→4)-(α-L-fucopyranosyl-(1→3))-2-acetamido-2-deoxy-β-D-glucopyranosyl]-β-D-galactopyranoside] | 2.67 | about 3.5 |  |  |  |  |  | 
2 | COC(=O)CCCCCO[C@@H]1O[C@H](CO[C@@H]2O[C@H](CO)[C@@H](O[C@@H]3O[C@H](CO)[C@H](O)[C@H](O[C@]4(C(=O)O)C[C@H](O)[C@@H](NC(C)=O)[C@H]([C@H](O)[C@H](O)CO)O4)[C@H]3O)[C@H](O[C@@H]3O[C@@H](C)[C@@H](O)[C@@H](O)[C@@H]3O)[C@H]2NC(C)=O)[C@H](O[C@@H]2O[C@H](CO)[C@@H](O[C@@H]3O[C@H](CO)[C@H](O)[C@H](O[C@]4(C(=O)O)C[C@H](O)[C@@H](NC(C)=O)[C@H]([C@H](O)[C@H](O)CO)O4)[C@H]3O)[C@H](O[C@@H]3O[C@@H](C)[C@@H](O)[C@@H](O)[C@@H]3O)[C@H]2NC(C)=O)[C@H](O)[C@H]1O [Compound 21, 5-Methoxycarbonylpentyl 4,6-bis-O-[(5-acetamido-3,5-dideoxy-α-D-glycero-D-galacto-2-nonulo-pyranosylonic acid)-yl-(2→3)-β-D-galactopyranosyl-(1→4)-(α-L-fucopyranosyl-(1→3))-2-acetamido-2-deoxy-β-D-glucopyranosyl]-β-D-galactopyranoside] | 1.67 |  | more active than Compound 20 |  |  |  |  | 
3 | CC(=O)N[C@H]1[C@H]([C@H](O)[C@H](O)CO)O[C@@](O[C@H]2[C@@H](O)[C@@H](CO)O[C@@H](O[C@H]3[C@H](O[C@@H]4O[C@@H](C)[C@@H](O)[C@@H](O)[C@@H]4O)[C@@H](NC(C)=O)C(O)O[C@@H]3CO)[C@@H]2O)(C(=O)O)C[C@@H]1O (stereo partly shown) [SLe^x, NeuAcα2→3βGalβ1→4(Fucα1→3)GlcNAc] | 0.76 |  |  | binds weakly | reduced accumulation of neutrophils | reduced lung injury | ~1000 | binds weakly
4 | CCO[C@@H]1O[C@H](CO[C@@H]2O[C@H](CO)[C@@H](O[C@@H]3O[C@H](CO)[C@H](O)[C@H](O[C@]4(C(=O)O)C[C@H](O)[C@@H](NC(C)=O)[C@H]([C@H](O)[C@H](O)CO)O4)[C@H]3O)[C@H](O[C@@H]3O[C@@H](C)[C@@H](O)[C@@H](O)[C@@H]3O)[C@H]2NC(C)=O)[C@H](O)[C@H](O[C@@H]2O[C@H](CO)[C@@H](O[C@@H]3O[C@H](CO)[C@H](O)[C@H](O[C@]4(C(=O)O)C[C@H](O)[C@@H](NC(C)=O)[C@H]([C@H](O)[C@H](O)CO)O4)[C@H]3O)[C@H](O[C@@H]3O[C@@H](C)[C@@H](O)[C@@H](O)[C@@H]3O)[C@H]2NC(C)=O)[C@H]1O [Compound 1, Ethyl 3,6-bis-O-[(ammonium 5-acetamido-3,5-dideoxy-α-D-glycero-D-galacto-2-nonulo-pyranosylonate)-(2→3)-β-D-galactopyranosyl-(1→4)-(α-L-fucopyranosyl-(1→3))-2-acetamido-2-deoxy-β-D-glucopyranosyl]-β-D-galactopyranoside] | 3.8 and 2.67 | 3.5-5 | the most active |  |  |  |  | 

— patent US5559103A, “Bivalent sialyl X saccharides” (Cytel Corporation, priority 1994, dated 1996)
